# Experimental data taken from patent publication US20240139189A1, “N6-ADENOSINE-[…] INHIBITORS IN CANCER TREATMENT” (priority 2021, published 2024).
# Tests used:
# [1] = target: METTL3 (Homo sapiens (Human), UniProt Q86U44); experiment: TR-FRET biochemical assay (time resolved-Förster resonance energy transfer); conditions: for LLE (lipophilic ligand efficiency, pIC50-logP): calculated with DataWarrior; for potency reduction / loss: relative to parent compound
# Excerpt: The bonds formed are depicted in red. The IC50 values refer to the biochemical assay based on time resolved-Forster resonance energy transfer (TR-FRET). B) Superimposition of compounds 1 (grey, from X-ray with METTL3, PDB code: 7NHI) and 2 (cyan, drawn in Pymol).
# [2] = Kinetic solubility
# [3] = Rat liver microsomes
# [4] = in vitro; conditions: rat, microsomes
# [5] = target: METTL3/METTL14 (Homo sapiens (Human), UniProt Q86U44); experiment: Protein thermal shift assay, METTL3/METTL14; conditions: read-out: ΔTm
# [6] = IC50 data for N6-adenosine-methyltransferase
# Sequence of METTL3 (Q86U44 whole entry, looked up): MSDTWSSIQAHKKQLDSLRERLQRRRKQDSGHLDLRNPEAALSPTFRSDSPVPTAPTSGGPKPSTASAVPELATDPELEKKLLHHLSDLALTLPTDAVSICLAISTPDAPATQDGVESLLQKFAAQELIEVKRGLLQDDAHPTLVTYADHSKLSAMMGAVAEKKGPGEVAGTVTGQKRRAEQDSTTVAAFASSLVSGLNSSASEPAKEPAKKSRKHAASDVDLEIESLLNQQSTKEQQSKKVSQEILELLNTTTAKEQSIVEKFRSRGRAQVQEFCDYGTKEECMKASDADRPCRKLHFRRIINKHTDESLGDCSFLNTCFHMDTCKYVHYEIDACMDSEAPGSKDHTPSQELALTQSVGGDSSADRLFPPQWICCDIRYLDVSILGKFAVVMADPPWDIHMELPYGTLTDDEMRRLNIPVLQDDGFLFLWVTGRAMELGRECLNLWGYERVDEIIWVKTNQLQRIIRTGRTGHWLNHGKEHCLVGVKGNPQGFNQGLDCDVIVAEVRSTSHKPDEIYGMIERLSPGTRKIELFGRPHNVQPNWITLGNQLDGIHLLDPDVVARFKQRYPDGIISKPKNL
# Sequence of METTL3 (Q9HCE5 whole entry partner, looked up): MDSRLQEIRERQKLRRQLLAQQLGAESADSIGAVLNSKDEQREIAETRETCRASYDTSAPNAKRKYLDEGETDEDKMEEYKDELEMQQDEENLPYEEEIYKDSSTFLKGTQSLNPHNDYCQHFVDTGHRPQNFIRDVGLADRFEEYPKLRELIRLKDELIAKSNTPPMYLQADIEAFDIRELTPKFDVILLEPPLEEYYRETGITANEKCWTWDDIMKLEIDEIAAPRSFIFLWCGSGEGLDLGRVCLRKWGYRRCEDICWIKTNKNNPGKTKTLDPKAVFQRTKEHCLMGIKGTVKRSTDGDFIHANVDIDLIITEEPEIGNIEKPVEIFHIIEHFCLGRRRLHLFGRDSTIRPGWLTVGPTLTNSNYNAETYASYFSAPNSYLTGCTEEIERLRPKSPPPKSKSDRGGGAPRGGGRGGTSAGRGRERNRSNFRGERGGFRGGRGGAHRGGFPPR
# Sequence of METTL3/METTL14 (Q86U44 whole entry, looked up): as the sequence (Q86U44 whole entry, looked up) above
# Sequence of METTL3/METTL14 (Q9HCE5 whole entry partner, looked up): as the sequence (Q9HCE5 whole entry partner, looked up) above
SMILES,LE (ligand efficiency) [1],IC50 ([1]; TR-FRET assay),"LLE (lipophilic ligand efficiency, pIC50-logP) [1]","IC50 [1, 6]",further results
CNc1cc(N2CCCC(O)(CNC(=O)c3ccc(CN4CCC(C)(C)CC4)cc3)C2)ncn1 (stereo not shown) [Compound 1],0.21 kcal.mol^-1.heavy atom count^-1,8.2 µM,2.5,,
CC1(C)CCN(Cc2ccc(C(=O)NC3CCN(c4cc(NCc5ccccc5)ncn4)CC3)cn2)CC1 [Compound 6],0.20 kcal.mol^-1.heavy atom count^-1,3.6 µM,1.7,,
"CC1(C)CCN(Cc2ccc(N3CCOC4(CCN(c5cc(NCc6ccccc6)ncn5)CC4)C3)cn2)CC1 [Compound 7, N-Benzyl-6-(4-(6-((4,4-dimethylpiperidin-1-yl)methyl)pyridin-3-yl)-1-oxa-4,9-diazaspiro[5.5]undecan-9-yl)pyrimidin-4-amine]",,0.28 µM,,0.28 µM,
"CC1(C)CCN(Cc2ccc(N3CC(=O)NC4(CCN(c5cc(NCc6ccccc6)ncn5)CC4)C3)cn2)CC1 [Compound 8, 9-(6-(Benzylamino)pyrimidin-4-yl)-4-(6-((4,4-dimethylpiperidin-1-yl)methyl)pyridin-3-yl)-1,4,9-triazaspiro[5.5]undecan-2-one]",,0.037 µM,,0.037 µM,
"CC1(C)CCN(Cc2ccc(N3CC(=O)NC4(CCN(c5cc(NCc6ccccc6)ncn5)CC4)C3)cc2)CC1 [Compound 9, 9-(6-(Benzylamino)pyrimidin-4-yl)-4-(4-((4,4-dimethylpiperidin-1-yl)methyl)phenyl)-1,4,9-triazaspiro[5.5]undecan-2-one]",,0.026 µM,,0.026 µM,
"CNc1cc(N2CC3(CN(c4ccc(CN5CCC(C)(C)CC5)cc4)CC(=O)N3)C2)ncn1 [Compound 11, 8-(4-((4,4-Dimethylpiperidin-1-yl)methyl)phenyl)-2-(6-(methylamino)pyrimidin-4-yl)-2,5,8-triazaspiro[3.5]nonan-6-one]",0.26 kcal.mol^-1.heavy atom count^-1,0.44 µM,4.5,0.44 µM,Kinetic solubility [2]: 86 µM; RLM t1/2 [3]: 70 min; potency reduction / loss [1]: 5 fold
CNc1cc(N2CCC3(CC2)CN(c2ccc(CN4CCC(C)(C)CC4)cc2)C(=O)N3)ncn1 [Compound 12],0.23 kcal.mol^-1.heavy atom count^-1,1.8 µM,2.6,,potency reduction / loss [1]: 20 fold
CN(C)c1cc(N2CCC3(CC2)CN(c2ccc(CN4CCC(C)(C)CC4)cc2)CC(=O)N3)ncn1 [Compound 14],0.23 kcal.mol^-1.heavy atom count^-1,0.97 µM,3.2,,
"CC(C)Nc1cc(N2CCC3(CC2)CN(c2ccc(CN4CCC(C)(C)CC4)cc2)CC(=O)N3)ncn1 [Compound 15, 4-(4-((4,4-Dimethylpiperidin-1-yl)methyl)phenyl)-9-(6-(isopropylamino)pyrimidin-4-yl)-1,4,9-triazaspiro[5.5]undecan-2-one]",0.24 kcal.mol^-1.heavy atom count^-1,0.33 µM,3.2,0.33 µM,
"CC1(C)CCN(Cc2ccc(N3CC(=O)NC4(CCN(c5cc(NC6CC6)ncn5)CC4)C3)cc2)CC1 [Compound 16, 9-(6-(Cyclopropylamino)pyrimidin-4-yl)-4-(4-((4,4-dimethylpiperidin-1-yl)methyl)phenyl)-1,4,9-triazaspiro[5.5]undecan-2-one]",,0.084 µM,,0.084 µM,
"CC1(C)CCN(Cc2ccc(N3CC(=O)NC4(CCN(c5ncnc6[nH]ccc56)CC4)C3)cc2)CC1 [Compound 17, 4-(4-((4,4-Dimethylpiperidin-1-yl)methyl)phenyl)-9-(7H-pyrrolo[2,3-d]pyrimidin-4-yl)-1,4,9-triazaspiro[5.5]undecan-2-one]",,0.061 µM,,0.061 µM,
CC1(C)CCN(Cc2ccc(N3CC(=O)NC4(CCN(c5ccnc6[nH]ccc56)CC4)C3)cc2)CC1 [Compound 18],0.20 kcal.mol^-1.heavy atom count^-1,4.5 µM,2.3,,potency reduction / loss [1]: 74 fold
"CC1(C)CCN(Cc2ccc(N3CC(=O)NC4(CCN(c5nc(Cl)nc6[nH]ccc56)CC4)C3)cc2)CC1 [Compound 19, 9-(2-Chloro-7H-pyrrolo[2,3-d]pyrimidin-4-yl)-4-(4-((4,4-dimethylpiperidin-1-yl)methyl)phenyl)-1,4,9-triazaspiro[5.5]undecan-2-one]",0.28 kcal.mol^-1.heavy atom count^-1,0.024 µM,3.9,0.024 µM,Kinetic solubility [2]: 45 µM; solubility kinetic ([2]; kinetic from dmso stock): 45 µM; RLM t1/2 [3]: 32 min; half-life [4]: 32 min
"CNc1cc(N2CCC3(CC2)CN(c2ccc(CN4CCC(C)(C)CC4)cc2F)CC(=O)N3)ncn1 [Compound 20, 4-(4-((4,4-Dimethylpiperidin-1-yl)methyl)-2-fluorophenyl)-9-(6-(methylamino)pyrimidin-4-yl)-1,4,9-triazaspiro[5.5]undecan-2-one]",,0.038 µM,,0.038 µM,
"CNc1cc(N2CCC3(CC2)CN(c2ccc(CN4CCC(C)(C)CC4)c(F)c2)CC(=O)N3)ncn1 [Compound 21, 4-(4-((4,4-Dimethylpiperidin-1-yl)methyl)-3-fluorophenyl)-9-(6-(methylamino)pyrimidin-4-yl)-1,4,9-triazaspiro[5.5]undecan-2-one]",,0.032 µM,,0.032 µM,
"CNc1cc(N2CCC3(CC2)CN(c2cc(F)c(CN4CCC(C)(C)CC4)cc2F)CC(=O)N3)ncn1 [Compound 22, 4-(4-((4,4-Dimethylpiperidin-1-yl)methyl)-2,5-difluorophenyl)-9-(6-(methylamino)pyrimidin-4-yl)-1,4,9-triazaspiro[5.5]undecan-2-one]",,,,,ΔTm at 100 µM [5]: 4.7 °C
"Nc1ncnc2c1ncn2[C@@H]1O[C@H](CSCC[C@H](N)C(=O)O)[C@@H](O)[C@H]1O [SAH, S-adenosyl-L-homocysteine, reference compound]",,,,,ΔTm at 100 µM [5]: 2.8 °C
